Measured values reported in article PMC8066339, “Optimization of 2-Acylaminocycloalkylthiophene Derivatives for Activity against Staphylococcus aureus RnpA” (Antibiotics, 2021).
Several values for one entry are separate records, joined by “and”; a condition that tells them apart may be missing. Identical values can stand only once. Entries after “also recorded” stand apart in the source; their conditions may differ. Like-named read-outs stand apart in the source and are kept apart here. Values belong to the compound of their own block, whether it stands above or below them.

What was measured:
S. aureus UAMS-1 = test: Fractional inhibitory concentration (FIC) testing with mupirocin; format: cell-based, Staphylococcus aureus; conditions: Staphylococcus aureus
Method: Fractional inhibitory concentration (FIC) testing was performed, as previously described. Briefly, each well of a 96-well microtiter plate was inoculated with 10^4 CFU of S. aureus UAMS-1 [42]. Each row of the plate was supplemented with two-fold increasing concentrations of mupirocin (0 µg mL^−1 to 2 µg mL^−1) whereas each column contained two-fold increasing concentrations of putative RnpA inhibitor compound (0.03, 0.0625, 0.125, 0.25, 0.5, 1, or 2× MIC). […] The FIC index was defined by the following formula: FIC = (MIC of Drug A in Combination/MIC of Drug A Alone) + (MIC of Drug B in Combination/MIC of Drug B Alone). A synergistic interaction was defined as a FIC value of ≤0.5, an additive interaction as 0.5–1, no interaction as 1–4 and antagonistic interaction as FIC ≥ 4, as described.

S. aureus = test system: S. aureus; parameters: method as in PMID 21347352, PMID 25605356, PMID 31035380; conditions: previously reported, Figure 1; cited from earlier work
S. aureus strain UAMS-1 [1] = test system: S. aureus strain UAMS-1; parameters: method as in Colquhoun et al. [34]; conditions: ref Colquhoun et al. [34]; cited from earlier work
RNase P (RnpA + rnpB) = biological target: T1, RNase P (RnpA + rnpB) (Staphylococcus aureus, UniProt P0A0H5); test: In vitro ptRNA^Tyr processing assay with reconstituted RNase P; format: biochemical; conditions: for IC50: average of at least two tests
T1 construct: made in house; host or cells: E. coli BL21 (DE3)
T1 sequence (P0A0H5 1-117): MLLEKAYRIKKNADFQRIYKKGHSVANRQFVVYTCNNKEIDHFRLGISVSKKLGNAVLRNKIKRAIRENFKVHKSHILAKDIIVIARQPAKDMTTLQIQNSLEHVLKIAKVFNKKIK
Method: (§1) His-tagged RnpA was purified as previously described. E. coli BL21 (DE3) cells harboring plasmid pEXP5-nt containing a hexahistidine tag fused to the N-terminus of S.aureus RnpA coding region were grown in LB supplemented with 50 µg mL^−1 ampicillin to OD600 = 0.6 and induced with 1mM isopropyl β-D-1-thiogalactopyranoside (IPTG) for three hours to induce protein expression. […] Cells were mechanically lysed by three passes at 18,000 psi through a French Pressure Cell Press (SLM-Aminco; Pittsford, NY, USA) and cell debris was removed by centrifugation at 17,000× g for 10 min at 4 °C. Supernatants were collected, filtered through a 0.2 micron syringe filter, then loaded onto a 5 mL HisPur cobalt column (ThermoFisher Scientific, Waltham, MA, U.S.A.) using the BioRad Maximizer Duo-Flow Medium Pressure Chromatography System. Protein was eluted using an imidazole gradient (80 mM to 500 mM). Fractions were assessed for RnpA presence and purity via SDS-PAGE analysis, Coomassie staining and Western blotting using an anti-His antibody (Invitrogen; Grand Island, NY, USA).
rnpB and RNA substrates (spa, ptRNA^Tyr) for RnpA functional assays, as well as mature tRNA were synthesized in vitro, as previously described. Each gene was PCR amplified using S. aureus UAMS-1 chromosomal DNA as a template and the corresponding oligonucleotide primer pairs, in which the forward primers contained an RNA polymerase T7 promoter sequence. The following primer pairs were used in this study (T7 promoter underlined): T7-rnpB forward—[…] and rnpB reverse—[…]; T7-ptRNA^Tyr forward—[…] and ptRNA^Tyr reverse—TGGTGGAG GGGGGCAGATTC; T7-spa forward—[…] CGACGTCCAG and spa reverse—[…]. Resulting PCR products were analyzed on a 0.8% agarose gel and purified using the Qiagen QIAquick Gel Extraction kit, according to the manufacturer’s instructions. In vitro transcription was performed using the TranscriptAid T7 High Yield Transcription kit (Fermentas; Burlington, ON, Canada) following manufacturer’s instructions. Following in vitro transcription, the RNA was treated with DNase I for 90 min and re-purified using the Qiagen RNeasy Mini kit. RNA was quantified using a NanoDrop2000 spectrophotometer.
S.aureus Rnase P activity assays were performed as previously described. Briefly, ptRNA^Tyr and rnpB RNA was denatured by heating to 95 °C for 5 min then slow cooled to room temperature. RNA species were then combined with 2× low salt buffer (50 mM Tris-HCl pH 8.0, 5 mM MgCl2) and incubated for 5 min at 37 °C. Rnase P was reconstituted by mixing an equal molar ratio of His-RnpA and rnpB for 15 min at 37 °C. […] Then, 5 pmol ptRNA^Tyr was added to each reaction and incubated for an additional 30 min at 37 °C. Reactions were stopped with 2× RNA loading dye (Thermo Scientific) and heating to 65 °C for 10 min. Samples were electrophoresed on a 7M urea/8% polyacrylamide gel then stained with 0.5 µg mL^−1 ethidium bromide. The BioRad EZ Gel Doc imaging system was used to visualize the RNA and relative abundance of mature tRNA^Tyr in the DMSO control or in the samples containing compound and analyzed using BioRad Image Lab densitometry software. The percent inhibitory activity of each compound was calculated using the following equation: (% experimental processing/% processing negative control) × 100.

S. aureus strain UAMS-1 [2] = test: Minimum inhibitory concentration (MIC) testing, CLSI broth microdilution; format: cell-based, Staphylococcus aureus; conditions: Staphylococcus aureus, UAMS1
Method: Staphylococcus aureus strains UAMS-1 is a well-characterized antibiotic susceptible osteomyelitis clinical isolate (Blevins Infect. Immun 2003). For experiments, UAMS-1 was cultured in Mueller Hinton (MH) broth and processed as described below. Escherichia coli strain BL21 (DE3) was cultured in Luria–Bertani (LB) and supplemented with ampicillin (50 µg ml^−1) where indicated.
Minimum inhibitory concentration (MIC) was performed according to the Clinical and Laboratory Standards Institute (CLSI) guidelines. Briefly, individual wells of a 96-well microtiter plate were inoculated with 10^4 colony forming units (CFU) of S. aureus UAMS-1 containing two-fold increasing concentrations (0 µM to 100 µM) of the indicated antibiotic or putative RnpA inhibitor and grown at 37 °C for 16 h in MH broth. The MIC was defined as the lowest concentration of compound in which there was no visible bacterial growth detected by the unaided eye.

S. aureus RnpA = biological target: T2, S. aureus RnpA (Staphylococcus aureus, UniProt P0A0H5); test: In vitro RnpA mRNA degradation assay (RNase Alert FRET substrate); format: biochemical
T2 construct: made in house; host or cells: E. coli BL21 (DE3)
T2 sequence (P0A0H5 1-117): T1 sequence (P0A0H5 1-117)
Method: as §1
RnpA-mediated degradation was assessed using the Rnase Alert QC System (Thermofisher Scientific). 20 pmol of His-RnpA was combined with 0.4 μM (final concentration) FRET substrate and either DMSO (negative control) or compound ≤500 µM in 1× Rnase Alert Buffer. Reactions were assembled in 96-well PCR plates (BioRad) and incubated at 37 °C for 30 min in the BioRad CFX 96 Connect Real Time instrument, measuring fluorescence every 2 min at 490 nm excitation/520 nm emission. Percent inhibition of each compound was calculated at the 30 min time-point based on the following formula: (RFU of compound treated RnpA/RFU of DMSO-treated RnpA) × 100.

MTT cytotoxicity testing = conditions: human, HEP G2 cells (human liver epithelial cells)
Method: For the scaffold to have translational significance, it must be non-toxic to human cells. Accordingly, an initial assessment of toxicity was performed using human liver epithelial (HEP G2) cells via a 3-(4,5-dimethylthiazol-2-yl)-2,5-diphenyltetrazolium bromide (MTT) assay in the presence of up to 400 µM of each analog. […] Viability of 70% was used as the cut-off criteria for toxicity (Figure 4, dashed line), according to ISO guidelines, as described in Materials and Methods.
Human liver epithelial cells (HEP G2) were cultured in Dulbecco’s Modified Eagle Medium (DMEM; Fisher Scientific, Hampton, NH) supplemented with 10% heat inactivated fetal bovine serum (FBS; Corning Life Sciences) and 1% penicillin/streptomycin (Thermofisher Scientific). Cells were incubated at 37 °C with 5% CO2 in Nunc (Roskilde, Denmark) tissue culture flasks. Cells were grown in monolayers until exceeding 70% confluency, removed with 0.25% trypsin (Fisher Scientific), resuspended in fresh medium, and used to seed approximately 2.5 × 10^5 cells/mL into each well of a 96 well tissue culture microplate (Nunc) containing 200 µL of fresh medium. Cytotoxicity testing was conducted according to the guidelines of the International Organization for Standardization (ISO) 10993-5:2009. After 24 h of incubation, the cell media was removed, and adherent cells were washed with 1× phosphate buffered saline (PBS). Cell media was supplemented with 5% per volume of compound at final concentrations from 12.5 µM to 400 µM and incubated 20–24 h at 37 °C with 5% CO2. After incubation, medium supplemented with compound was removed from the wells and replaced with 100 µL of fresh culture medium. Then, 10 µL of 12 mM (3-(4,5-dimethylthiazol-2-yl)-2,5-diphenyltetrazolium bromide (MTT) stock reagent (CyQUANT MTT cell proliferation kit; Thermofisher Scientific) was added to each well. After labeling the cells with the MTT reagent, all but 25 µL of medium was removed from the wells, and 50 µL of DMSO was added to each well and mixed thoroughly and cells were incubated at 37 °C with 5% CO2 for 10 min. After incubation, wells were mixed again and using a SPECTRAmax5 microplate reader, absorbance was read at 540 nm. Cells were treated with 125 µg/mL mitomycin C (Fisher Scientific) to serve as a positive control and 2% DMSO as a negative control. […] All compounds were tested in two independent experiments in triplicate and cell viability was expressed as a percent of the negative control.

MIC (S. aureus UAMS-1; UAMS1, mupirocin alone, read-out: Mup MIC, Dosed-Individually): 0.5 µM
SMILES: C/C(=C\C(=O)OCCCCCCCCC(=O)O)C[C@@H]1OC[C@H](C[C@@H]2O[C@H]2[C@@H](C)[C@H](C)O)[C@@H](O)[C@H]1O [Mup, mupirocin, reference compound]

SMILES: Cc1cc(/C=C(/C#N)C(=O)Nc2cccc(Br)c2)c(C)n1-c1ccc(C(=O)O)cc1 [RNP1000]
S. aureus MIC (S. aureus): 34 to 69 µM

SMILES: O=C(Nc1ccc(Cl)cc1)c1c(NC(=O)C(F)(F)F)sc2c1CCCCC2 [JR1]
MIC (S. aureus strain UAMS-1 [1]): 1.25 µM and 0.52 µg/mL | S. aureus MIC (S. aureus): 1.25 µM

MIC (S. aureus UAMS-1; UAMS1, compound alone, read-out: Cpd MIC, Dosed-Individually): > 500 µM | IC50 (RNase P (RnpA + rnpB); in vitro ptRNA^Tyr processing, read-out: ptRNA IC50): > 250 µM | MIC (S. aureus strain UAMS-1 [2]; S. aureus strain UAMS-1, read-out: MIC): > 200 µg/mL | Inhibition of in vitro RnpA-mediated RNA degradation (in words) (S. aureus RnpA): exhibited inhibitory activity | IC50 (S. aureus RnpA; in vitro RnpA-mediated RNA degradation, read-out: mRNA IC50): 43 µM
SMILES: O=C(Nc1cccc(Cl)c1)c1c(NC(=O)C(F)F)sc2c1CCCCC2 [RNP0017]
Inhibition of in vitro RnpA ptRNA processing (in words) (RNase P (RnpA + rnpB)): did not appear to display any inhibition; also recorded: weak or no inhibitory activity

SMILES: O=C(CF)Nc1sc2c(c1C(=O)Nc1cccc(Cl)c1)CCCCC2 [RNP0018]
MIC (S. aureus UAMS-1; UAMS1, read-out: Cpd MIC, Dosed-Individually): > 500 µM | Inhibition of in vitro RnpA ptRNA processing (in words) (RNase P (RnpA + rnpB)): good inhibitory properties | IC50 (RNase P (RnpA + rnpB); ptRNA IC50, in vitro ptRNA^Tyr processing): 58 µM | MIC (S. aureus strain UAMS-1 [2]): > 200 µg/mL | IC50 (S. aureus RnpA): 33 µM | Inhibition of in vitro RnpA-mediated RNA degradation (in words) (S. aureus RnpA): good inhibitory properties; also recorded: exhibited inhibitory activity

SMILES: CC1CCN(C(=O)Nc2cc(Cl)cc(Cl)c2)CC1 [JC1]
S. aureus MIC (S. aureus): 3.4 µM

SMILES: CO[C@@]12[C@H](COC(N)=O)C3=C(C(=O)C(C)=C(N)C3=O)N1C[C@@H]1N[C@@H]12 [Mitomycin C, reference compound]
viability at 400 µM (MTT cytotoxicity testing): 54.8%
